In patent US6294547A, “Naphthyridine deratives or salts thereof” (Nippon Kayaku Kabushiki Kaisha, priority 1997, dated 2001):
pIC50: −log10 of the molar value. Where a name gives a salt, the structure may show the parent alone.

Key:
NK-2 receptors [1] = biological target: T1, NK-2 receptors (Rattus norvegicus, UniProt P16610); assay: Binding to NK-2 receptors (inhibition of radioactive 125I-neurokinin A binding); format: Fischer strain male rats (duodenum membranes); conditions: rat duodenum membrane; 125I-neurokinin A 1×10^-9 M; 90 min, room temperature; read-out: IC50 of drugs in binding of radioactive neurokinin A
T1 construct: Duodenums isolated from Fischer strain male rats were homogenized; from tissue; host or cells: duodenum membranes of male Fischer rats
T1 sequence (P16610 1-390): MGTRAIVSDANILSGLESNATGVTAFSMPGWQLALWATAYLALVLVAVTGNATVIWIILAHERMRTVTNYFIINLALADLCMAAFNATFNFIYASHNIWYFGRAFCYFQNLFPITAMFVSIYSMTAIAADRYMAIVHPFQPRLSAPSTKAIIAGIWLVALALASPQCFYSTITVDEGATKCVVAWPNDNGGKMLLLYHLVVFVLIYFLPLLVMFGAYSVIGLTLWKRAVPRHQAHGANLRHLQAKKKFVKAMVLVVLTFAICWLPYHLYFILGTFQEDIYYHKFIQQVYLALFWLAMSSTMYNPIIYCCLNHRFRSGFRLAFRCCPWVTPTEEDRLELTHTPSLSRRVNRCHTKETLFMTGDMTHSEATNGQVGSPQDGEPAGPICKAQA
Procedure: Duodenums isolated from Fischer strain male rats were homogenized in 50 mM Tris-hydrochloric acid buffer (pH 7.4) containing saccharose (100 mg/ml) and ethylenediaminetetraacetic acid (1 mM), and the resulting homogenate was centrifuged at 48,000 g and 4° C. for 20 minutes. The pellet thus obtained was washed three times with 10 times as much 50 mM Tris-hydrochloric acid buffer (pH 7.4) containing KCl (300 mM) and ethylenediaminetetraacetic acid (10 mM) as the pellet by volume, and the resulting membrane preparation was suspended in 10 times as much 50 mM Tris-hydrochloric acid buffer (pH 7.4) as the membrane preparation by volume and stored at -80° C. until use. The membrane preparation (20 mg/ml) was incubated together with a radioactive ligand ^125 I-neurokinin A (1×10^-9 M) at room temperature for 90 minutes in the presence of each drug or a solvent therefor in 50 mM Tris-hydrochloricacid buffer (pH 7.4) containing bovine serum albumin (10 mg/ml), bacitracin (40 μg/ml), leupeptin (4 μg/ml), chymostatin (50 μg/ml), antipain (1×10^-4 M) and MnCl2 (1 mM). […] Then, radioactivity in the filter was measured with a gamma counter. The 50% inhibitory concentration (IC50) of the drug was determined by means of a regression line by considering radioactivity in the presence of Nle10 neurokinin A (4-10) (3×10^-6 M) to be due to nonspecific binding, and measuring the rate of inhibition of specific binding by the drug by carrying out a control experiment using the solvent alone.

NK-2 receptors [2] = assay: Inhibitory effect on bronchoconstriction caused by stimulation of NK-2 receptors (Nle10 neurokinin A (4-10)); format: in vivo, Hartley strain male guinea pigs
Procedure: There were used non-treated Hartley strain male guinea pigs and Hartley strain male guinea pigs received to active sensitization by subcutaneous administration of 30 mg/kg of ovalbumin 14 to 21 days before. The guinea pigs were anesthetized with pentobarbital and a tube was inserted into the trachea of each guinea pig. The guinea pigs were subjected to positive pressure respiration by means of an artificial respiratory apparatus at 10 ml/kg and 60 times/minute. The pressure in the edge of the tube in the trachea was measured as an indication of bronchoconstriction. Spontaneous respiration was inhibited by administering succinylcholine. The non-treated guinea pigs were repeatedly and intravenously injected with 2 nmol/kg of Nle10 neurokinin A (4-10), a specific stimulating agent for NK-2 receptors at intervals of 10 minutes. After the bronchoconstriction thus caused became stable, each drug was administered intravenously, orally or in duodenum. Nle10 neurokinin A (4-10) was intravenously injected again 3 minutes after the intravenous administration or 50 minutes after the oral administration or the administration in duodenum. The rate of inhibition by the drug was determined relative to the bronchoconstriction before the drug administration.

Mouse = assay: Toxic effect on mouse, intravenous; format: in vivo; conditions: 65 μmol/kg intravenous
Source text: The toxicity of the compounds of the present invention was investigated.

[3] = 8 μmol/kg oral, 50 min after administration
[4] = 0.5 μmol/kg intravenous, 3 min after administration
[5] = 1 μmol/kg intravenous, 3 min after administration

Row | Structure (SMILES) | pIC50 (NK-2 receptors [1]) | Inhibition (rate), stimulation of NK-2 receptors (NK-2 receptors [2]; 0.6 μmol/kg intravenous, 3 min after administration) | Inhibition (rate), stimulation of NK-2 receptors (NK-2 receptors [2]; [3]) | Inhibition (rate), stimulation of NK-2 receptors (NK-2 receptors [2]; [4]) | Toxicity (Mouse) | Inhibition (rate), stimulation of NK-2 receptors (NK-2 receptors [2]; [5]) | Inhibition (rate), stimulation of NK-2 receptors (NK-2 receptors [2]; 5 μmol/kg in duodenum, 50 min after administration)
1 | CN(CC(CCN1CCc2nc3ccccc3c(C(N)=O)c2C1)c1ccc(Cl)c(Cl)c1)C(=O)c1ccccc1 (single isomer, unassigned) [Example 29, 2-[(-)-4-(N-benzoyl-N-methyl)amino-3-(3,4-dichlorophenyl)butyl]-1,2,3,4-tetrahydro-benzo-[b][1,6]naphthyridine-10-carboxamide fumarate] | 7.23 | 100.0% | 43.5% |  |  |  | 
2 | CC(=O)Nc1c2c(nc3ccccc13)CCN(CCC(CN(C)C(=O)c1ccccc1)c1ccc(Cl)c(Cl)c1)C2 (single isomer, unassigned) [Example 27, 2-[(-)-4-(N-benzoyl-N-methyl)amino-3-(3-4-dichlorophenylbutyl]-10-methylcarbonylamino-1,2,3,4-tetrahydro-benzo[b][1,6]naphthyridine fumarate] | 7.74 |  | 81.5% | 100.0% | None |  | 
3 | CN(CC(CCN1CCc2nc3ccccc3c(-c3ccccc3)c2C1)c1ccc(Cl)c(Cl)c1)C(=O)c1ccccc1 (single isomer, unassigned) [Example 39, 2-[(-)-4-(N-benzoyl-N-methyl)amino-3-(3,4-dichlorophenyl)butyl]-10-phenyl-1,2,3,4-tetrahydro-benzo[b][1,6]naphthyridine fumarate] | 7.15 |  |  | 70.0% |  |  | 
4 | CN(CC(CCN1CCc2nc3ccccc3c(CO)c2C1)c1ccc(Cl)c(Cl)c1)C(=O)c1ccccc1 (single isomer, unassigned) [Example 37, 2-[(-)-4-(N-benzoyl-N-methyl)amino-3-(3,4-dichlorophenylbutyl]-10-hydroxymethyl-1,2,3,4-tetrahydro-benzo-[b][1,6]naphthyridine fumarate] | 7.05 |  |  |  |  | 97.5% | 
5 | COC(=O)Nc1c2c(nc3ccccc13)CCN(CCC(CN(C)C(=O)c1ccccc1)c1ccc(Cl)c(Cl)c1)C2 (single isomer, unassigned) [Example 41, 2-[(-)-4-(N-benzoyl-N-methyl)amino-3-(3,4-dichlorophenyl)butyl]-10-methoxycarbonylamino-1,2,3,4-tetrahydro-benzo[b][1,6]naphthyridine fumarate] | 7.52 |  |  | 97.0% |  |  | 62.0%
6 | COC(=O)N(C)c1c2c(nc3ccccc13)CCN(CCC(CN(C)C(=O)c1ccccc1)c1ccc(Cl)c(Cl)c1)C2 (single isomer, unassigned) [Example 43, 2-[(-)-4-(N-benzoyl-N-methyl)amino-3-(3,4-dichlorophenyl)butyl]-10-(N-methyl-N-methoxycarbonyl)-amino-1,2,3,4-tetrahydro-benzo[b][1,6]naphthyridine fumarate] | 7.18 |  |  | 86.2% |  |  | 
7 | COC(=O)c1c2c(nc3ccccc13)CCN(CCC(CN(C)C(=O)c1ccccc1)c1ccc(Cl)c(Cl)c1)C2 (single isomer, unassigned) [Example 31, 2-[(-)-4-(N-benzoyl-N-methyl1amino-3-(3,4-dichlorophenyl)butyl]-10-methoxycarbonyl-1,2,3,4-tetrahydro-benzo[b][1,6]naphthyridine fumarate] | 7.02 |  | 53.5% |  |  | 100.0% | 
8 | CN(CC(CCN1CCc2nc3ccccc3c(C(=O)O)c2C1)c1ccc(Cl)c(Cl)c1)C(=O)c1ccccc1 (single isomer, unassigned) [Example 33, 2-[(-)-4-(N-benzoyl-N-methyl)amino-3-(3,4-dichlorophenyl)butyl]-1,2,3,4-tetrahydro-benzo-[b][1,6]naphthyridine-10-carboxylic acid fumarate] | 7.03 |  |  |  |  | 57.5% | 
